{"source": "patent US20050234073A1", "about": "“Methods of inhibiting inflammation” (priority 2003, published 2005)", "key": {"MTP": {"biological_target": "MTP (Homo sapiens, UniProt P55157)", "sequence (P55157 19-894, species assumed)": "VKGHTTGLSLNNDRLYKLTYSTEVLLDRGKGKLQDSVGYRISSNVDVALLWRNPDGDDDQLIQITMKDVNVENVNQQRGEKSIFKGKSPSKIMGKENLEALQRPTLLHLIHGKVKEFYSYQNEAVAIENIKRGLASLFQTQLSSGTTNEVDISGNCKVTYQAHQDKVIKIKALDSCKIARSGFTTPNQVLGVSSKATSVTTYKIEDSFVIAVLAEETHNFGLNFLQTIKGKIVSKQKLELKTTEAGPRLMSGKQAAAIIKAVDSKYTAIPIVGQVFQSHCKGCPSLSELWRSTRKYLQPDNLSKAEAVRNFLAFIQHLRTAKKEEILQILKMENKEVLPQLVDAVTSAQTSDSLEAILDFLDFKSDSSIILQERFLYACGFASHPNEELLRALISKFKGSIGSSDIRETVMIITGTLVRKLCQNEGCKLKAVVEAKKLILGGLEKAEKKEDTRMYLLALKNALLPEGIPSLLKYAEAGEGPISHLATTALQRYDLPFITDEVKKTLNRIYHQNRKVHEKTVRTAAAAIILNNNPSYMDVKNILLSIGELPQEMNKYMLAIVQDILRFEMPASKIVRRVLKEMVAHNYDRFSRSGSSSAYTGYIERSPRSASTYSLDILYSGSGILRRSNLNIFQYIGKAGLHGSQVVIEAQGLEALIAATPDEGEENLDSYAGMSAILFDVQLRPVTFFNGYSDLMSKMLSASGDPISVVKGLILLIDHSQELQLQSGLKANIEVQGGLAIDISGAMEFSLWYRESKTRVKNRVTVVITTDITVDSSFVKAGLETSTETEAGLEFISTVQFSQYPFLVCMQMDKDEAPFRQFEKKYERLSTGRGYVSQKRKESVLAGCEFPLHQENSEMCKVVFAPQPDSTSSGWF", "sequence (P07237 18-508 partner, species assumed)": "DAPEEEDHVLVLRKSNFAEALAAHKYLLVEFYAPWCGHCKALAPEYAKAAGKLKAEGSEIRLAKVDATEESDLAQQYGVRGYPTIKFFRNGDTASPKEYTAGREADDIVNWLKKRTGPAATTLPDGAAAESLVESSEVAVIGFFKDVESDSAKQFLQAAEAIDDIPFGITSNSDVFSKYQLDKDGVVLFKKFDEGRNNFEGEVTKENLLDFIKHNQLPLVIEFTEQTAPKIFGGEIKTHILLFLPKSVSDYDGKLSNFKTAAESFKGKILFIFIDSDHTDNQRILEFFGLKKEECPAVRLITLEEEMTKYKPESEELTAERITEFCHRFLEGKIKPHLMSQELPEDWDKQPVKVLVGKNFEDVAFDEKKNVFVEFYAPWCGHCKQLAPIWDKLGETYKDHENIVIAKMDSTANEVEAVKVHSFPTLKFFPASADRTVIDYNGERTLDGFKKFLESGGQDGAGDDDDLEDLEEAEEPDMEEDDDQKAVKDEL", "details": "cited from earlier work"}, "moDCs": {"tested_on": "moDCs", "test": "Human moDC presentation of α-galcer to DN32 iNKT cells (IL-2 ELISA)", "format": "cell-based", "details": "moDCs differentiated in presence of inhibitor", "method": "FIG. 20G is a line graph showing IL-2 production in human moDCs differentiated in the presence of BMS212122 (◯) or vehicle (●) were incubated with α-galcer. IL-2 concentrations were measured by ELISA of 24 hour culture supernatants. *, p<0.05; **, p<0.01.\n(§1) APCs were incubated with 100 ng/mL α-galcer (kindly provided by Dr. H. Ploegh) for 3 hours, washed three times in PBS and aliquoted into a 96 well plate at 10^6 cells/mL. DN32 cells were added at 1:1 E:T ratio unless otherwise indicated. CD4^+ cells were isolated from spleens of OT-II transgenic mice using positive selection on CD4 magnetic beads (Miltenyi Biotec) and incubated with APCs and 100 μg/mL ovalbumin. The 24.8 NKT cell line was incubated with APCs in the absence of added antigen at E:T=2:1 unless otherwise indicated. Mouse IL-2 production was assessed by ELISA (OptEIA, BD PharMingen) of 24 or 40 hour culture supernatants. […]\nBone marrow was extracted from the femurs of C57BL6 or MTPmx1cre mice, washed once in PBS and resuspended in R10 supplemented with culture supernatant from murine GM-CSF transfected cells for a final concentration of 200 U/mL GM-CSF. […] Differentiated cells were harvested by gentle pipetting, washed in PBS, and analyzed by flow cytometry for surface expression of CD11c and I-A^b. […] After 5 days cells were dislodged by gentle pipetting, analyzed by flow cytometry and assayed for antigen presentation. […]"}, "MODE-K cells": {"tested_on": "MODE-K cells", "test": "MODE-K cell presentation of α-galcer to DN32 cells (IL-2 ELISA)", "format": "cell-based, mouse", "details": "MODE-K cells incubated with inhibitor (10 uM)", "method": "FIG. 17A is a bar chart showing IL-2 production of MODE-K cells cultured in the presence of BMS212122 (MTPi) or vehicle were incubated with α-galcer for 3 hours, washed, and co cultured with DN32 cells. IL-2 concentrations were measured by ELISA of 24 hour culture supernatants.\nas §1, with “supernatants. APCs were treated with BMS212122 (10 uM dissolved in DMSO; kindly provided by Bristol Myers Squibb, New Jersey) as indicated and washed prior to addition of T or NKT cells.” for “supernatants.”\nThe relationship between MTP and CD1d in large intestinal epithelial cells (IECs) was determined. […]"}, "C1Rd cells": {"tested_on": "C1Rd cells", "test": "C1Rd cell presentation of α-galcer to DN32 NKT cells (IL-2 ELISA)", "format": "cell-based, human", "details": "C1Rd cells cultured 5 days with inhibitor", "method": "FIG. 20D is a bar chart showing IL-2 production in C1Rd cells cultured with BMS212122 or vehicle for 5 days that were incubated with α-galcer for 3 hours IL-2 concentrations were measured by ELISA of 24 hour culture supernatants. *, p<0.02.\nas §1, with “supernatants. APCs were treated with BMS212122 (10 uM dissolved in DMSO; kindly provided by Bristol Myers Squibb, New Jersey) as indicated and washed prior to addition of T or NKT cells.” for “supernatants.”\nC1Rd is a human B cell line transfected with human CD1d. […] Incubation of C1Rd cells with BMS212122, but not the vehicle, inhibited the presentation of α-galcer as determined by a reduction in IL-2 secretion (FIG. 20D)."}}}
{"smiles": "Cc1ccc2c(nc(C)n2CCCCC2(C(=O)NCC(F)(F)F)c3ccccc3-c3ccccc32)c1NC(=O)c1ccccc1-c1ccc(C(F)(F)F)cc1", "note": "[BMS212122, 9-[4-[2,5-Dimethyl-4-[[[4′-(trifluoromethyl)[1,1′-biphenyl]-2-yl]carbonyl]amino]-1H-benzimidazol-1-yl]butyl]-N-(2,2,2-trifluoroethyl)-9H-fluorene-9-carboxamide]", "values": [{"measurement": "transfer of triglycerides, phospholipids, and cholesterol esters in vitro", "setting": "MTP", "value": "blocks transfer"}, {"measurement": "capacity to present α-galcer to DN32 iNKT cells", "setting": "moDCs", "value": "reduced capacity"}, {"measurement": "presentation of α-galcer to DN32 cells", "setting": "MODE-K cells", "value": "decreased"}, {"measurement": "presentation of α-galcer (IL-2 secretion)", "setting": "C1Rd cells", "value": "inhibited"}]}
